Measurements as given in US9181266B2, “2-piperidin-1-yl-acetamide compounds for use as tankyrase inhibitors” (NOVARTIS AG, priority 2011, dated 2015).

Tests used:
Human PARP1 = Human PARP1 (Homo sapiens (Human), UniProt P09874); assay: PARP1 autoparsylation assay (LC/MS detection of nicotinamide); type: biochemical; settings: 20 nM enzyme, 250 μM β-NAD+, 60 min
Method: (§1) The autoparsylation activity of the TNKS 1/2 or PARP1/2 enzymes was measured by the liquid chromatography-mass spectrometry (LC/MS) detection of nicotinamide as readout. Compound activity in inhibiting the TNKS and PARP autoparsylation was evaluated by IC50 measurements.

PARP2 = PARP2 (Mus musculus (Mouse), UniProt O88554); assay: PARP2 autoparsylation assay (LC/MS detection of nicotinamide); type: biochemical; settings: 20 nM enzyme, 250 μM β-NAD+, 60 min
PARP2, sequence (O88554 whole entry): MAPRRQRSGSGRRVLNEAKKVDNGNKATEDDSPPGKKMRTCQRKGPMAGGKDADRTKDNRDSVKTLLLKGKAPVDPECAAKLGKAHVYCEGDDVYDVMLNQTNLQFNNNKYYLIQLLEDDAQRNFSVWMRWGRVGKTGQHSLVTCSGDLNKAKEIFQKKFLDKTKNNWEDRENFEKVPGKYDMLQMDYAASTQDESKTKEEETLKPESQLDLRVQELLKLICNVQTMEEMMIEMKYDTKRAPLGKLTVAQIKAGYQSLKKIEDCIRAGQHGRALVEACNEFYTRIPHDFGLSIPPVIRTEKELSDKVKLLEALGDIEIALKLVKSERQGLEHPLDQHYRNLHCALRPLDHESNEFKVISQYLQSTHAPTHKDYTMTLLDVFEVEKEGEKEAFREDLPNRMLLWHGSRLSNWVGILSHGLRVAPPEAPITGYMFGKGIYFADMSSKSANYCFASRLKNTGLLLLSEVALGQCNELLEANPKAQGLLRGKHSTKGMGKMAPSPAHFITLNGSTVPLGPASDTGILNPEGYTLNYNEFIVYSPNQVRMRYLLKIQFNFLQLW
Method: as §1

[1] = system: Wnt ligand-induced signaling in HEK293 cells; assay: Wnt-responsive Super-TOpFlash (STF) luciferase reporter gene assay; type: cell-based; settings: Homo sapiens, Wnt3A condition medium
Method in brief: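 HEK293 cells (8000/well, 5% FBS medium) treated with 20% mouse L-cell Wnt3A conditioned medium plus compounds in 10-point serial dilution; luciferase read next day. Inhibition calculated relative to Wnt3A-induced signal without compound and background without Wnt3A CM or compound.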

[2] = system: Axin2 protein in SW480 cells; assay: Cellular ELISA assay of Axin2 protein stabilization; type: cell-based; settings: Homo sapiens, 24 hrs, read-out: Axin AC50
Method in brief: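 SW480 colorectal cells seeded overnight, treated with compound, then lysed. Axin2 in lysates measured by sandwich ELISA: anti-Axin2 capture antibody coated at 1 μg/ml (pH 9.2), lysate 2 h at room temperature, biotinylated anti-Axin2 detection 2 h, then streptavidin-HRP 30 min.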

[3] = system: Non-small lung cancer ABC-1 cells; assay: Cellular proliferation assay (CellTiter-Glo); type: cell-based; settings: Homo sapiens, 72 h; ABC-1 cells, 3 days of compound treatment; read-out: ABC-1 IC50
Method: Cellular Proliferation Assay to Determine Compound Inhibition of Cancer Cell Growth
Viable cells were measured after 3 days of compound treatment using the CellTiter-Glo assay (Promega, G7570). Assay was performed following the manufacture protocol.

[4] = target: human tankyrase 1 PARP catalytic domain, TNKS1P (Homo sapiens (Human), UniProt O95271); assay: TNKS1 autoparsylation assay (LC/MS detection of nicotinamide); settings: read-out: TNKS1 AP IC50, 20 nM enzyme, 250 μM β-NAD+, 60 min
human tankyrase 1 PARP catalytic domain, TNKS1P, sequence (O95271 1112-1317): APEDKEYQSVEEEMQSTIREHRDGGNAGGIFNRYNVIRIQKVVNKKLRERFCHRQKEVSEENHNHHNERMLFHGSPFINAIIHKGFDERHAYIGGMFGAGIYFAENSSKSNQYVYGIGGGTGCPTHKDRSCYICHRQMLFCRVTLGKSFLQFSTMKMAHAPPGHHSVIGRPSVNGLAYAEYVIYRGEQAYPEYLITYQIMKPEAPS
Method: Biochemical Assay to Determine Compound Inhibition of TNKS Enzyme Activity
The autoparsylation activity of the TNKS 1/2 or PARP1/2 enzymes was measured by the liquid chromatography-mass spectrometry (LC/MS) detection of nicotinamide as readout. Compound activity in inhibiting the TNKS and PARP autoparsylation was evaluated by IC50 measurements. […] For the background control wells, 10 μL of the 5× quenching solution per well was added prior to the addition of β-NAD^+. The % Inhibition was calculated as: (Control−Sample)/(Control−Background)*100.

[5] = target: tankyrase 2 protein PARP domain, TNKS2P (Homo sapiens (Human), UniProt Q9H2K2); assay: TNKS2 autoparsylation assay (LC/MS detection of nicotinamide); settings: read-out: TNKS2 AP IC50, 20 nM enzyme, 250 μM β-NAD+, 60 min
tankyrase 2 protein PARP domain, TNKS2P, sequence (Q9H2K2 959-1164): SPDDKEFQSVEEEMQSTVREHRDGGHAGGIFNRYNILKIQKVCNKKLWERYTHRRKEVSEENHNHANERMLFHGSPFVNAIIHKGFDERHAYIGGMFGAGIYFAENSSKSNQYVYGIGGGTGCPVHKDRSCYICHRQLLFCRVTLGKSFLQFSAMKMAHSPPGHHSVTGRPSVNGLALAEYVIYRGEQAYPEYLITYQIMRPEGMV

Human PARP1, sequence (P09874 whole entry): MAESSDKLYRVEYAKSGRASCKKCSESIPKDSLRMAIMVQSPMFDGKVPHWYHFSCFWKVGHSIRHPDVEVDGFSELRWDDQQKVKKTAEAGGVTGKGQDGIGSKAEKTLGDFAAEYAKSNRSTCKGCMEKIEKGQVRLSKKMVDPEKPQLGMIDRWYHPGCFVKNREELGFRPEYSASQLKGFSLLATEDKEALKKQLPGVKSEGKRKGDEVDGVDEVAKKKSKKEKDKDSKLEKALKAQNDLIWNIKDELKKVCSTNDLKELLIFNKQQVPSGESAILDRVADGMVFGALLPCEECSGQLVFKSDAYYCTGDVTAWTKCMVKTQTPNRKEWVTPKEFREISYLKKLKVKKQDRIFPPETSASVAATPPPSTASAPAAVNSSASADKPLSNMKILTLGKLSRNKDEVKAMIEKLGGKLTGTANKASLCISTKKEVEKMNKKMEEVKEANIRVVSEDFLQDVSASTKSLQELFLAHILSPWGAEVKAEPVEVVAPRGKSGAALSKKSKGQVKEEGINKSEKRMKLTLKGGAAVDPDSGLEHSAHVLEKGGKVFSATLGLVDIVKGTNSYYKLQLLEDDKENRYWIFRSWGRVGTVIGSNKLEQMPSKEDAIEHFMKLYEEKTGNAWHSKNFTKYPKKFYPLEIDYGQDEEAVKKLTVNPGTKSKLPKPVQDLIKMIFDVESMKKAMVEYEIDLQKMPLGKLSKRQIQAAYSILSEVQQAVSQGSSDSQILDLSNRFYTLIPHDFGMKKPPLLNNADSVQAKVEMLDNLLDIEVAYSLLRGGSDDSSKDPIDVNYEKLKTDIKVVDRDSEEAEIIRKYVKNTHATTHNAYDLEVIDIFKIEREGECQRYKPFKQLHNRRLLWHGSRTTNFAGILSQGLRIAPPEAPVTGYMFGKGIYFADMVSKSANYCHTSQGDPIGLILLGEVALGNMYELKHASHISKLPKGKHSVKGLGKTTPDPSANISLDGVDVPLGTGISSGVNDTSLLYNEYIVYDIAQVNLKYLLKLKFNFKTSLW

| Compound | IC50 (Human PARP1) | IC50 (PARP2) | IC50 [1] | AC50 [2] | IC50 [3] | IC50 [4] | IC50 [5] |
| --- | --- | --- | --- | --- | --- | --- | --- |
| O=C(CN1CCC(C(=O)c2ccc(Cl)cc2)CC1)NCc1nc2c(c(=O)[nH]1)COCC2 [Example 2, 2-[4-(4-Chloro-benzoyl)-piperidin-1-yl]-N-(4-oxo-3,5,7,8-tetrahydro-4H-pyrano[4,3-d]-pyrimidin-2-ylmethyl)-acetamide] | 9100 ± 1000 nM | 2590 ± 290 nM | 10 ± 2 nM | 205 ± 61 nM | 393 nM | 37 ± 2 nM | 7 nM |
| CC(C)Oc1ccc(C(=O)C2CCN(CC(=O)NCc3nc4c(c(=O)[nH]3)COCC4)CC2)cc1 [Example 3, 2-[4-(4-Isopropoxy-benzoyl)-piperidin-1-yl]-N-(4-oxo-3,5,7,8-tetrahydro-4H-pyrano[4,3-c]pyrimidin-2-ylmethyl)-acetamide] | 5630 ± 730 nM | 2100 ± 240 nM | 23 ± 2 nM | 62 ± 16 nM | 105 nM | 35 ± 9 nM | 14 ± 1 nM |
| O=C(CN1CCC(C(=O)c2ccc(F)cc2)CC1)NCc1nc2c(c(=O)[nH]1)CCCC2 [Example 10, 2-(4-(4-Fluorobenzoyl)piperidin-1-yl)-N-((4-oxo-3,4,5,6,7,8-hexahydroquinazolin-2-yl)methyl)acetamide] | 2700 ± 800 nM | 700 ± 80 nM | 27 ± 15 nM | 479 ± 24 nM | 393 nM | 55 ± 3 nM | 36 ± 2 nM |
| COc1ccc(C(=O)C2CCN(CC(=O)NCc3nc4c(c(=O)[nH]3)CCC4)CC2)cc1 [Example 11, 2-(4-(4-Methoxybenzoyl)piperidin-1-yl)-N-((4-oxo-4,5,6,7-tetrahydro-3H-cyclopenta[d]pyrimidin-2-yl)methyl)acetamide] | 17900 ± 1800 nM | 4620 ± 20 nM | 3 ± 1 nM | 15 ± 4 nM | 18 nM | 28.5 ± 3.5 nM | 110 ± 140 nM |
| COc1ccc(C(=O)C2CCN(CC(=O)NCc3nc(C)c(C)c(=O)[nH]3)CC2)cc1 [Example 12, N-((4,5-Dimethyl-6-oxo-1,6-dihydropyrimidin-2-yl)methyl)-2-(4-(4-methoxybenzoyl)piperidin-1-yl)acetamide] | > 19000 nM | > 19000 nM | 7 ± 4 nM | 32 ± 4 nM | 53 nM | 40 ± 2 nM | 20 ± 3 nM |
| CC(C)(C)CN(Cc1nc2c(c(=O)[nH]1)COCC2)C(=O)CN1CCC(C(=O)c2ccc(F)cc2)CC1 [Example 14, 2-(4-(4-Fluorobenzoyl)piperidin-1-yl)-N-neopentyl-N-((4-oxo-4,5,7,8-tetrahydro-3H-pyrano[4,3-d]pyrimidin-2-yl)methyl)acetamide] | > 19000 nM | > 19000 nM | 49 ± 23 nM | 501 ± 29 nM | 270 nM | 60 ± 7 nM | 20 ± 1 nM |
| O=C(c1ccc(F)cc1)C1CCN(CC(=O)N(Cc2ccc(F)cc2)Cc2nc3c(c(=O)[nH]2)COCC3)CC1 [Example 15, 2-(4-(4-Fluorobenzoyl)piperidin-1-yl)-N-(4-fluorobenzyl)-N-((4-oxo-4,5,7,8-tetrahydro-3H-pyrano[4,3-d]pyrimidin-2-yl)methyl)acetamide] | > 19000 nM | > 19000 nM | 101 ± 74 nM | 804 ± 91 nM | 540 nM | 138 ± 1 nM | 32 ± 1 nM |
| COc1ccc(CN(Cc2nc3c(c(=O)[nH]2)COCC3)C(=O)CN2CCC(C(=O)c3ccc(F)cc3)CC2)cc1 [Example 16, 2-(4-(4-Fluorobenzoyl)piperidin-1-yl)-N-(4-methoxybenzyl)-N-((4-oxo-4,5,7,8-tetrahydro-3H-pyrano[4,3-d]pyrimidin-2-yl)methyl)acetamide] | > 19000 nM | > 19000 nM | 49 ± 43 nM | 587 ± 87 nM | 340 nM | 66 ± 4 nM | 15 ± 2 nM |
| O=C(c1ccc(F)cc1)C1CCN(CC(=O)N(Cc2nc3c(c(=O)[nH]2)COCC3)Cc2nc3ccccc3s2)CC1 [Example 17, N-(Benzo[d]thiazol-2-ylmethyl)-2-(4-(4-fluorobenzoyl)piperidin-1-yl)-N-((4-oxo-4,5,7,8-tetrahydro-3H-pyrano[4,3-d]pyrimidin-2-yl)methyl)acetamide] | > 19000 nM | > 19000 nM | 49 ± 37 nM | 125 ± 18 nM | 420 nM | 73 ± 3 nM | 18 ± 1 nM |
| COc1cccc(CN(Cc2nc3c(c(=O)[nH]2)COCC3)C(=O)CN2CCC(C(=O)c3ccc(F)cc3)CC2)c1 [Example 18, 2-(4-(4-Fluorobenzoyl)piperidin-1-yl)-N-(3-methoxybenzyl)-N-((4-oxo-4,5,7,8-tetrahydro-3H-pyrano[4,3-d]pyrimidin-2-yl)methyl)acetamide] | > 19000 nM | > 19000 nM | 72 ± 62 nM | 493 ± 87 nM | 535 ± 7 nM | 94 ± 1 nM | 23 nM |
| O=C(c1ccc(F)cc1)C1CCN(CC(=O)N(Cc2nc3c(c(=O)[nH]2)COCC3)CC2CC2)CC1 [Example 24, N-Cyclopropylmethyl-2-[4-(4-fluoro-benzoyl)-piperidin-1-yl]-N-(4-oxo-3,5,7,8-tetrahydro-4H-pyrano[4,3-d]pyrimidin-2-ylmethyl)-acetamide] | > 19000 nM | > 19000 nM | – | 320 ± 180 nM | 276 ± 37 nM | 35 ± 10 nM | – |
| O=C(c1ccc(F)cc1)C1CCN(CC(=O)N(Cc2nc3c(c(=O)[nH]2)COCC3)C[C@H]2CCCO2)CC1 [Example 29, (R)-2-(4-(4-Fluorobenzoyl)piperidin-1-yl)-N-((4-oxo-4,5,7,8-tetrahydro-3H-pyrano[4,3-d]pyrimidin-2-yl)methyl)-N-((tetrahydrofuran-2-yl)methyl)acetamide] | > 19000 nM | > 19000 nM | 79 ± 80 nM | 990 ± 220 nM | 1430 nM | 148 ± 10 nM | 38 ± 1 nM |
| CC[C@H](C)N(Cc1nc2c(c(=O)[nH]1)COCC2)C(=O)CN1CCC(C(=O)c2ccc(F)cc2)CC1 [Example 31, (S)—N-sec-Butyl-2-(4-(4-fluorobenzoyl)piperidin-1-yl)-N-((4-oxo-4,5,7,8-tetrahydro-3H-pyrano[4,3-d]pyrimidin-2-yl)methyl)acetamide] | > 19000 nM | > 19000 nM | 37 ± 9 nM | 1100 ± 180 nM | 630 ± 400 nM | 38 ± 3 nM | 13 ± 1 nM |
| CC[C@@H](C)N(Cc1nc2c(c(=O)[nH]1)COCC2)C(=O)CN1CCC(C(=O)c2ccc(F)cc2)CC1 [Example 32, (R)—N-sec-Butyl-2-(4-(4-fluorobenzoyl)piperidin-1-yl)-N-((4-oxo-4,5,7,8-tetrahydro-3H-pyrano[4,3-d]pyrimidin-2-yl)methyl)acetamide] | > 19000 nM | > 19000 nM | 49 ± 14 nM | 910 ± 150 nM | 370 nM | 43 ± 2 nM | 13 ± 1 nM |
| N#Cc1ccc(CN(Cc2nc3c(c(=O)[nH]2)COCC3)C(=O)CN2CCC(C(=O)c3ccc(F)cc3)CC2)s1 [Example 46, N-(5-Cyano-thiophen-2-ylmethyl)-2-[4-(4-fluoro-benzoyl)-piperidin-1-yl]-N-(4-oxo-3,5,7,8-tetrahydro-4H-pyrano[4,3-d]pyrimidin-2-ylmethyl)-acetamide] | > 19000 nM | > 19000 nM | 36 ± 8 nM | 275 ± 84 nM | – | 53 ± 4 nM | 16 ± 1.4 nM |
| O=C(CN1CCC2(CC1)Cc1cc(F)ccc1C2=O)NCc1nc2c(c(=O)[nH]1)COCC2 [Example 61, 2-(5-Fluoro-1-oxo-1,3-dihydrospiro[indene-2,4′-piperidine]-1′-yl)-N-((4-oxo-4,5,7,8-tetrahydro-3H-pyrano[4,3-d]pyrimidin-2-yl)methyl)acetamide] | 6500 ± 1700 nM | > 19000 nM | 1600 ± 800 nM | – | 8120 nM | 25 ± 6 nM | 8 ± 2.6 nM |
| CCOc1ccc(C(=O)C2CCN(CC(=O)NCc3nc4c(c(=O)[nH]3)COCC4)CC2)cc1 [Example 66, 2-(4-(4-Ethoxybenzoyl)piperidin-1-yl)-N-((4-oxo-4,5,7,8-tetrahydro-3H-pyrano[4,3-d]pyrimidin-2-yl)methyl)acetamide] | 6500 ± 1300 nM | 3200 ± 1000 nM | 5690 ± 170 nM | > 10000 nM | – | 27 ± 10 nM | 9 ± 7 nM |
| COc1cccc(C(=O)C2CCN(CC(=O)N(Cc3nc4c(c(=O)[nH]3)COCC4)CC(F)F)CC2)c1 [Example 73, N-(2,2-Difluoro-ethyl)-2-[4-(3-methoxy-benzoyl)-piperidin-1-yl]-N-(4-oxo-3,5,7,8-tetrahydro-4H-pyrano[4,3-d]pyrimidin-2-ylmethyl)-acetamide] | > 19000 nM | > 19000 nM | 470 ± 150 nM | > 10000 nM | – | 49 ± 1 nM | 16 ± 2 nM |
